Measured values taken from article PMC7576722, “An immunochemistry-based screen for chemical inhibitors of DNA-protein interactions and its application to human CGGBP1” (BMC Cancer, 2020).

Key:
[1] = molecular target: T1, rCGGBP1 (Homo sapiens, UniProt Q9UFW8); test: DBID dot blot of protein binding to immobilised genomic DNA, chemiluminescence densitometry; details: 100 μM compound, 45 min, 4 °C, RIPA buffer; sonicated HEK293T genomic DNA
T1 construct: gene CGGBP1; recombinant, C-terminal FLAG tag; about 20 kDa
T1 sequence (Q9UFW8 1-167): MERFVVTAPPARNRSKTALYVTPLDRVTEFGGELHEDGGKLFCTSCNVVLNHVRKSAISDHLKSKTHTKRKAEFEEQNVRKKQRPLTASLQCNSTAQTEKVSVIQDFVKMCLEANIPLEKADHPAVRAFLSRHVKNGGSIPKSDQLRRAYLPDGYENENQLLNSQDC

[2] = molecular target: T1, rCGGBP1; test: in vitro Alu DNA immunoprecipitation with qPCR (anti-FLAG); assay type: binding; details: 100 μM compound, 45 min, room temperature, PBS; Alu DNA 1 μg, protein 0.5 μg
Experimental: in vitro Alu DNA immunoprecipitation with qPCR (anti-FLAG) on rCGGBP1 | Pre-incubation of rCGGBP1 with Givinostat reduces the amount of Alu DNA co-precipitating with FLAG-antibody by […]

SMILES | DBID dot blot of protein binding to immobilised genomic DNA, chemiluminescence d [1] | % reduction of co-precipitated Alu DNA at 100 μM [2]
CC(NC(=O)c1ccccc1/N=C/c1c(O)ccc2ccccc12)c1ccccc1 (stereo not drawn) [Sirtinol] | (ii) moderate inhibition (Sirtinol and Tenovin-I) | –
CCN(CC)Cc1ccc2cc(COC(=O)Nc3ccc(C(=O)NO)cc3)ccc2c1 [Givinostat] | – | 70-80%
CC(=O)Nc1ccc(NC(=S)NC(=O)c2ccc(C(C)(C)C)cc2)cc1 [Tenovin-1] | (ii) moderate inhibition (Sirtinol and Tenovin-I) | –
